Experimental data from the supplement of paper PMC10307832.

How the values were obtained:
Assay in all cases: relative viability (nuclei count vs DMSO), 5 days (fraction); higher = more cells survive
VE-821 + Crizotinib = compound: CS(=O)(=O)c1ccc(-c2cnc(N)c(C(=O)Nc3ccccc3)n2)cc1 [VE-821] + C[C@@H](Oc1cc(-c2cnn(C3CCNCC3)c2)cnc1N)c1c(Cl)ccc(F)c1Cl [Crizotinib] (partner 1 µM)
Outline: (§1)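 Relative viability divides the nuclei count in treated wells by that in vehicle wells. Lung cancer cell lines were seeded in 1536-well plates, dosed by pin tool the next day, and fixed and stained after 5 days in one step with final 0.05% Triton X-100, 1% formaldehyde and 1 ug/ml Hoechst. Dosing was a single drug or a fixed anchor-drug dose plus five library-drug doses (not always all listed) in √10 steps, and values are medians of duplicate plates imaged at 4×.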

Vismodegib + Palbociclib = compound: CS(=O)(=O)c1ccc(C(=O)Nc2ccc(Cl)c(-c3ccccn3)c2)c(Cl)c1 [Vismodegib] + CC(=O)c1c(C)c2cnc(Nc3ccc(N4CCNCC4)cn3)nc2n(C2CCCC2)c1=O [Palbociclib] (partner 0.5 µM)
Outline: as §1

Ruxolitinib + Vorinostat = compound: N#CC[C@H](C1CCCC1)n1cc(-c2ncnc3[nH]ccc23)cn1 [Ruxolitinib] + O=C(CCCCCCC(=O)Nc1ccccc1)NO [Vorinostat] (partner 1 µM)
Outline: as §1

Row | Cell Line | relative viability (VE-821 + Crizotinib; first compound 0.08 µM) | relative viability (VE-821 + Crizotinib; first compound 0.253 µM) | relative viability (VE-821 + Crizotinib; first compound 0.8 µM) | relative viability (VE-821 + Crizotinib; first compound 2.53 µM) | relative viability (VE-821 + Crizotinib; first compound 8 µM) | relative viability (Vismodegib + Palbociclib; first compound 0.08 µM) | relative viability (Vismodegib + Palbociclib; first compound 0.253 µM) | relative viability (Vismodegib + Palbociclib; first compound 0.8 µM) | relative viability (Vismodegib + Palbociclib; first compound 2.53 µM) | relative viability (Vismodegib + Palbociclib; first compound 8 µM) | relative viability (Ruxolitinib + Vorinostat; first compound 0.08 µM) | relative viability (Ruxolitinib + Vorinostat; first compound 0.253 µM) | relative viability (Ruxolitinib + Vorinostat; first compound 0.8 µM) | relative viability (Ruxolitinib + Vorinostat; first compound 2.53 µM) | relative viability (Ruxolitinib + Vorinostat; first compound 8 µM)
1 | A-427 | 0.907 | 0.821 | 0.785 | 0.811 | 0.384 | 0.536 | 0.525 | 0.506 | 0.493 | 0.566 | 0.906 | 0.879 | 0.9 | 0.974 | 0.841
2 | SW 1573 | 0.944 | 0.675 | 0.636 | 0.963 | 0.855 | 0.395 | 0.398 | 0.363 | 0.406 | 0.451 | 0.927 | 1.08 | 0.995 | 0.584 | 0.727
3 | NCI-H2087 | 1.21 | 0.891 | 1 | 0.902 | 0.93 | 0.188 | 0.235 | 0.22 | 0.217 | 0.232 | 0.868 |  | 0.752 | 0.686 | 0.705
4 | LK-2 | 0.223 | 0.228 | 0.248 | 0.249 | 0.212 | 0.72 | 0.708 | 0.607 | 0.83 | 0.745 | 0.265 | 0.26 | 0.254 | 0.287 | 0.209
5 | NCI-H1650 | 1.03 | 1.08 | 0.896 | 0.873 | 0.478 | 0.365 | 0.363 | 0.305 | 0.304 | 0.366 | 0.558 | 0.557 | 0.708 | 0.551 | 0.57
6 | NCI-H2023 | 0.715 | 0.659 | 0.395 | 0.316 | 0.193 | 0.321 | 0.318 | 0.374 | 0.345 | 0.4 | 0.661 | 0.667 | 0.95 | 0.581 | 0.798
7 | SK-LU-1 | 0.788 | 0.863 | 0.884 | 0.591 | 0.387 | 0.407 | 0.416 | 0.416 | 0.376 | 0.384 | 0.763 | 0.856 | 0.747 | 0.805 | 0.53
8 | NCI-H2347 | 0.723 | 0.794 | 0.684 | 0.983 | 0.713 | 0.443 | 0.418 | 0.419 | 0.448 | 0.488 | 0.68 | 0.546 | 0.568 | 0.566 | 0.622
9 | NCI-H727 | 0.866 | 0.804 | 0.898 | 0.739 | 0.394 | 0.687 | 0.649 | 0.631 | 0.723 | 0.639 | 1.2 | 1.19 | 1.4 | 1.12 | 1.49
10 | COR-L23 | 0.731 | 0.76 | 0.695 | 0.726 | 0.562 | 0.337 | 0.33 | 0.344 | 0.289 | 0.312 | 0.579 | 0.347 | 0.463 | 0.403 | 0.287
11 | NCI-H2126 | 1.02 | 0.954 | 0.954 | 0.965 | 0.859 | 0.329 | 0.335 | 0.342 | 0.333 | 0.328 | 0.771 | 0.755 | 0.853 | 0.843 | 0.847
12 | H3255 | 1.05 | 0.981 | 0.761 | 1.03 | 0.847 | 0.296 | 0.29 | 0.292 | 0.33 | 0.324 |  | 0.9 | 0.892 | 0.791 | 0.382
13 | NCI-H1915 | 0.892 | 0.856 | 0.883 | 0.874 | 0.846 | 0.499 | 0.483 | 0.549 | 0.53 | 0.53 | 0.467 | 0.488 | 0.565 | 0.461 | 0.332
14 | NCI-H358 | 0.67 | 0.636 | 0.501 | 0.588 | 0.451 | 0.141 | 0.181 | 0.138 | 0.135 | 0.16 | 0.624 | 0.645 | 0.673 | 0.509 | 0.417
15 | NCI-H23 | 0.788 | 0.495 | 0.501 | 0.508 | 0.272 | 0.505 | 0.439 | 0.544 | 0.412 | 0.522 | 0.668 | 0.628 | 0.763 | 0.642 | 0.43
16 | EMC-BAC-2 | 0.899 | 0.763 | 0.737 | 0.731 | 0.651 | 0.508 | 0.498 | 0.516 | 0.508 | 0.546 | 0.412 | 0.432 | 0.443 | 0.621 | 0.279
17 | NCI-H2009 | 1.08 | 1.01 | 0.963 | 1.02 | 0.879 | 0.208 | 0.238 | 0.188 | 0.252 | 0.276 | 0.715 | 0.71 | 0.722 | 0.631 | 0.507
18 | NCI-H460 | 1.5 | 0.818 | 0.588 | 0.359 | 0.186 | 0.225 | 0.125 | 0.217 | 0.156 | 0.35 | 0.847 | 0.774 | 0.819 | 0.599 | 0.516
19 | ABC-1 | 1.18 | 1.1 | 0.904 | 0.777 | 0.58 | 0.667 | 1.01 | 0.542 | 0.618 | 0.73 |  | 1.18 | 1.4 | 0.825 | 0.907
20 | 201T | 1.04 | 1.03 | 1.02 | 1.08 | 0.979 | 0.323 | 0.393 | 0.363 | 0.359 | 0.382 | 1.12 | 1.16 | 1.21 | 1.25 | 1.17
21 | NCI-H1993 | 0.897 | 0.844 | 0.809 | 0.852 | 0.686 | 0.699 | 0.682 | 0.636 | 0.568 | 0.565 | 0.81 | 0.754 | 0.102 | 0.822 | 0.75
22 | RERF-LC-KJ | 0.839 | 0.806 | 0.775 | 0.701 | 0.693 | 1.03 | 1 | 1.08 | 1.02 | 1.14 | 0.73 | 0.859 | 0.841 | 0.867 | 0.66
